Data taken from patent US20190338290A1, “TREATMENT OF SARCOMA” (MEMORIAL SLOAN KETTERING CANCER CENTER, priority 2017, published 2019).

Tested on: SS18-SSX / KDM2B co-localization
Assay: Proximity ligation assay (PLA) of SS18-SSX and KDM2B
Type: cell-based, human
Details: HS-SY-II cells, SS18-SSX knockdown
Description: Indicated synovial sarcoma cell lines were seeded at 3×10^4 cells/well in culture treated 8-well chamber slides and treated as previously described (Laporte et al., 2016). Primary antibodies for PLA were used at 1/1000 dilution: SS18 (Santa-Cruz Biotechnologies, sc-28698), KDM2B (Abnova, H00084678-M09), HA (Santa-Cruz Biotechnologies, sc-805). Proximity ligation was performed utilizing the Duolink® In Situ Red Starter Kit Mouse/Rabbit (Sigma-Aldrich, DUP92101-1KT) according to the manufacturer's protocol. Fluorescence was detected using a Zeiss Axioplan2 microscope at 40×. Images were quantified in triplicate using ImageJ software (NIH) as foci per nucleus, defined as the number of interaction points counted per nucleus. For PLA analysis upon SS18-SSX knockdown, duplex oligo (sense, […]; antisense, […]) SS18-SSX siRNAs were designed to target the SSX portion of SS18-SSX using the Integrated. DNA Technologies RNA interference (RNAi) design tool, and synthesized by Integrated DNA Technologies (IDT) as previously described (Lubieniecka et al., 2008). HS-SY-II cells were seeded in 6-well plates. At 60% confluence, cells were transfected with 50 pmol siSS18-SSX and 9 μL Lipofectamine RNAiMAX transfection reagent (Invitrogen) in Opti-MEM serum free media (Life Technologies). […]

SSX targeting siRNA: duplex oligo siRNA (sense CAAGAAGCCAGCAGAGGAATT; antisense UUCCUCUGCUGGCUUCUUGTT) designed to target the SSX portion of SS18-SSX (chemistry not given here)
PLA signal (SS18 and KDM2B antibodies): abolished
